We go through three molecules from patent US4233299A, “4-Hydroxy-2H-1,2-benzothiazine-3-carboxamide-1,1-dioxides and salts thereof” (priority 1977, dated 1980).

The term ED50 denotes the midpoint of the dose-response relation. Broadly, the LD50 is the dose at which mortality reaches 50%.

Entries after “also recorded” stand apart in the source; their conditions may differ. Where two headings read alike, the source gives them in different places.

One data set concerns adjuvant arthritis. Description: activity against adjuvant arthritis in the rat. The data set is classed as in vivo, male Chbb:THOM-rats. The note with it: for ED50: Rattus norvegicus, 504 h; for antiphlogistic activity: in words, compared with compound A. The method, then: 0.1 ml of a 1% suspension of M. butyricum in viscous paraffin oil was administered by subplantar injection to the right hind paw of male Chbb:THOM-rats having an average body weight of 210 gm at the beginning of the test. […]
Using a linear regression analysis, an ED50 with the confidence limits according to FIELLER [Quart. J. Pharm. Pharmacol. 17, 117 (1944)] was calculated as the dosage which reduces the swelling of the paws by 50% in comparison to the control animals.

Data set [1] can be described thus: ulcerogenic effect on the stomach of the rat. The data set is classed as in vivo, male Chbb:THOM-rats. The note with it: rat, in vivo; for selectivity ratio: po, Table IV, ED50 ulcer / ED50 adjuvant arthritis prim. reaction, read-out: Therapeutic Ratio I/II; for TD50: Table II, daily oral administration for 3 days, limits in parentheses, Litchfield and Wilcoxon, read-out: Ulcerogenic activity in the stomach ED50. As for the experimental part: (§1) The test was carried out on male Chbb:THOM-rats with an average body weight of 130 gm at the beginning of the study. The animals were fed with a standard diet (Altromin-R) ad libitum. The test compounds were administered perorally as a trituration in 1% methyl cellulose (1 ml/100 gm animal) by means of an esophageal sound once a day on three successive days. Four hours after the last administration the animals were killed. The stomachs were dissected and the mucosa was washed with water for subsequent macroscopic evaluation. […] Therap. 96, 99 (1949)].

A further data set relates to stomach of the rat. Nature of the data set: ulcerogenic effect on the stomach of the rat. It is filed as in vivo, male Chbb:THOM-rats. As for the experimental part:
as §1

Data set [2] is described as follows: acute toxicity in the mouse. It is filed as in vivo, male and female Chbb: NMRI (SPF)-mice. To be noted: in vivo; for selectivity ratio: po, Table V, LD50 / ED50 adjuvant arthritis prim. reaction, read-out: Therapeutic Ratio I/II (converted); for LD50 at 336 h: Table III, oral administration, mouse, deaths within 14 days, limits in parentheses. The method, then: (§2) The acute toxicity was determined on male and female Chbb: NMRI (SPF)-mice (sex ratio of each dosage group 1:1) having an average body weight of 20 gm. The test compound was administered perorally as a trituration in 1% of methyl cellulose (0.2 ml/10 gm animal) by means of an esophageal sound.
(§3) The calculation of the LD50 -values was effected according to the method of LITCHFIELD and WILCOXON, based on the percentage of animals which died within 14 days after administration of each dose.

Data set [3] concerns pain caused by inflammation (yeast edema). Nature of the data set: activity against the pain caused by inflammation (Randall and Selitto). It is filed as in vivo, male Chbb:THOM-rats. The note with it: for ED50: po, 1.5 h, read-out: Randall-Selitto ED50. The method, then:
The activity against the pain caused by inflammation was tested according to Randall and Selitto [Arch. Int. Pharmacodyn. 111, 409 (1957] in male Chbb:THOM-rats, having a body weight of 100 to 130 gm. The test compounds were administered perorally 90 minutes after the induction of the yeast edema by means of an esophageal tube. After further 90 minutes the pain threshold was determined in the animals treated with the test compound and in the control animals treated only with the vehicle methyl cellulose, and by using a linear regression analysis an ED50 was calculated with the confidence limits according to FIELLER, the ED50 being the dose which increased the pain threshold by 50%.

The test system of a further data set is mouse. Description: acute toxicity in the mouse. It is filed as in vivo, male and female Chbb: NMRI (SPF)-mice. The note with it: compared with the other compounds; see Table V. The method, then: as §2, §3
Where [4] appears, read: Table I, daily oral administration, 21 days, dose per day, left hind paw swelling reduced by 50%, confidence limits according to FIELLER in parentheses, read-out: Activity against the secondary reaction ED50.
[5] abbreviates: Table I, daily oral administration, 21 days, dose per day, right hind paw swelling reduced by 50%, confidence limits according to FIELLER in parentheses, read-out: Activity against the primary reaction ED50.

For `Cc1csc(NC(=O)C2=C(O)c3ccccc3S(=O)(=O)N2C)n1` [Compound B, 4-Hydroxy-2-methyl-N-(4-methyl-2-thiazolyl)-2H-1,2-benzothiazine-3-carboxamide-1,1-dioxide], the ED50 in the data set on adjuvant arthritis (setting [4]) is 0.21 mg/kg. Besides, the ED50 in the data set on adjuvant arthritis (setting [5]) turned out to be 0.37 mg/kg. Besides, the antiphlogistic activity result in the data set with adjuvant arthritis was “does not completely reach the antiphlogistic activity of compound A”. Besides, in data set [1], the selectivity ratio came out at 0.84 and the TD50 was 0.31 mg/kg. In the data set with stomach of the rat (Table IV ratio, compared with compound C), the “therapeutic ratio, in words” value is “still smaller than that of compound C”. Further, the “ulcerogenic activity, in words” value with stomach of the rat (stomach) is reported as “strong ulcerogenic effect; also recorded: relatively more pronounced than its antiphlogistic activity”. Besides, the “ulcerogenic effect on the stomach, relative to compound A” value with stomach of the rat (times stronger than that of compound A) is reported as “more than 6 times”. For the same molecule, in data set [2], the selectivity ratio was 1320 and the LD50 at 336 h was found to be 488 mg/kg.

For `Cc1cnc(NC(=O)C2=C(O)c3ccccc3S(=O)(=O)N2C)s1` [Compound A, 4-Hydroxy-2-methyl-N-(5-methyl-2-thiazolyl)-2H-1,2-benzothiazine-3-carboxamide-1,1-dioxide], the ED50 was found to be 0.12 mg/kg in the data set with adjuvant arthritis (setting [4]); 0.28 mg/kg in the data set on adjuvant arthritis (setting [5]); 5.6 mg/kg in data set [3] (Table VI, peroral, rat, dose which increased the pain threshold by 50%). For the same molecule, in the data set with adjuvant arthritis (compared with compound C), the “effect on the inflammatory primary reactions, relative to compound C” value is “three times greater”. Further, the “effect on the specific secondary reactions, relative to compound C” value with adjuvant arthritis (contralateral paw, compared with compound C) was “about 5 times”. Moreover, the “effectiveness against the pain caused by inflammation” value in data set [3] (rat, compared with compound C) was “increased effectiveness”. The selectivity ratio in data set [1] was 8.25; in data set [2], 1680. For the same molecule, the TD50 in data set [1] worked out at 2.31 mg/kg. Further, in the data set with stomach of the rat (Table IV ratio, times greater than that of compound C), the “therapeutic ratio relative to compound C” value is on record as “about 7 times”. For the same molecule, the stomach compatibility result in the data set with stomach of the rat (in vivo) is given as “significantly better”. Also, in the data set on stomach of the rat (times greater than that of compound B), the “therapeutic ratio relative to compound B” value is reported as 10 times. For the same molecule, the LD50 at 336 h in data set [2] amounted to 470 mg/kg. Further, in the data set on mouse, the “difference between the antiphlogistically active doses and the toxic doses” value is on record as “distinctly higher than in the other compounds”.

As to `CN1C(C(=O)Nc2nccs2)=C(O)c2ccccc2S1(=O)=O` [C, 4-Hydroxy-2-methyl-N-(2thiazolyl)-2H-1,2-benzothiazine-3-carboxamide-1,1-dioxide], the ED50 in the data set on adjuvant arthritis (po, read-out: Activity against the primary reaction ED50) is 0.77 mg/kg; with adjuvant arthritis (po, read-out: Activity against the secondary reaction ED50) it was 0.6 mg/kg; in data set [3] (in Rattus norvegicus), 9.2 mg/kg. The antiphlogistic activity entry with adjuvant arthritis is “weaker antiphlogistic activity”. Besides, the selectivity ratio in data set [1] was 1.23; in data set [2], 12600. The TD50 in data set [1] was determined as 0.95 mg/kg. In addition, the “ulcerogenic effect on the stomach, relative to compound A” value in the data set on stomach of the rat (in words, compared with compound A) is on record as “two times stronger”. In data set [2], the LD50 at 336 h turned out to be 466 mg/kg.
